# From patent US20130157954A1, “METHODS FOR TREATMENT OR PROPHYLAXIS OF KIDNEY OR LIVER DYSFUNCTION” (NPS PHARMACEUTICALS, INC., priority 2010, published 2013)
# Assay: Example 2: liver biomarkers (albumin, gamma glutamyl transferase, total bilirubin, ALT, AST, ALP) in short bowel syndrome patients, every four weeks for 24 weeks; also sorted by >10% change from baseline
# Type: in vivo, Human
# Conditions: 0.05 mg/kg/d
# Description: To further confirm the results of Example 1, a further study was conducted involving more individuals and additional diagnostic biomarkers. Human patients with short bowel syndrome were divided into two groups: a control group (43 total individuals) to receive placebo, and an experimental group (42 total individuals) to receive teduglutide at 0.05 mg/kg/day throughout the study. Patients were treated by subcutaneous injection of placebo or the appropriate dose of teduglutide. Known biomarkers of liver function were monitored every four weeks, for 24 weeks. The liver biomarkers tested included albumin, gamma glutamyl transferase, total bilirubin, ALT and AST and ALP. Before administration of placebo or teduglutide, diagnostic biomarker levels were tested to establish a baseline for each individual.
# To determine the effect of GLP-2 on the levels of the diagnostic biomarkers, the average level of each biomarker was measured for the placebo and teduglutide treated groups for each visit. Furthermore, the average change from baseline was calculated using the established baseline values. For FIGS. 17-28, p-values were calculated using the t-test.
# P values are provided, which were calculated for each distribution of biomarker changes for each week using the chi-squared test.
compound,measurement,setting,value
CC[C@H](C)[C@H](NC(=O)[C@H](Cc1ccccc1)NC(=O)[C@H](CC(=O)O)NC(=O)[C@H](CCCNC(=N)N)NC(=O)[C@H](C)NC(=O)[C@H](C)NC(=O)[C@H](CC(C)C)NC(=O)[C@H](CC(N)=O)NC(=O)[C@H](CC(=O)O)NC(=O)[C@H](CC(C)C)NC(=O)[C@@H](NC(=O)[C@@H](NC(=O)[C@H](CC(N)=O)NC(=O)[C@H](CCSC)NC(=O)[C@H](CCC(=O)O)NC(=O)[C@H](CC(=O)O)NC(=O)[C@H](CO)NC(=O)[C@H](Cc1ccccc1)NC(=O)[C@H](CO)NC(=O)CNC(=O)[C@H](CC(=O)O)NC(=O)CNC(=O)[C@@H](N)Cc1c[nH]cn1)[C@@H](C)O)[C@@H](C)CC)C(=O)N[C@@H](CC(N)=O)C(=O)N[C@@H](Cc1c[nH]c2ccccc12)C(=O)N[C@@H](CC(C)C)C(=O)N[C@H](C(=O)N[C@@H](CCC(N)=O)C(=O)N[C@H](C(=O)N[C@@H](CCCCN)C(=O)N[C@H](C(=O)N[C@H](C(=O)N[C@@H](CC(=O)O)C(=O)O)[C@@H](C)O)[C@@H](C)CC)[C@@H](C)O)[C@@H](C)CC [teduglutide],Bilirubin: subjects Within 10% of Baseline,"Week 8, m = 40",10 (25.0%) n (%)
same,Bilirubin: subjects with >10% decrease from Baseline,"Week 8, m = 40",20 (50.0%) n (%)
same,Bilirubin: subjects with >10% increase from Baseline,"Week 8, m = 40",10 (25.0%) n (%)
same,ALKALINE PHOSPHATASE Change from Baseline Median,Week 12,−23 U/L
same,"ALT Change from Baseline, Max",Week 12,35 U/L
same,"ALT Change from Baseline, Mean",Week 12,−9.8 U/L
same,"ALT Change from Baseline, Median",Week 12,−4 U/L
same,"ALT Change from Baseline, Min",Week 12,−62 U/L
same,"ALT Observed Value, Max",Week 12,94 U/L
same,"ALT Observed Value, Min",Week 12,11 U/L
same,"AST Change from Baseline, Max",Week 12,34 U/L
same,"AST Change from Baseline, Mean",Week 12,−4.2 U/L
same,"AST Change from Baseline, Median",Week 12,−5 U/L
same,"AST Change from Baseline, Min",Week 12,−39 U/L
same,"AST Observed Value, Max",Week 12,60 U/L
same,"AST Observed Value, Median",Week 12,25 U/L
same,"AST Observed Value, Min",Week 12,9 U/L
same,"Albumin Change from Baseline, Max",Week 12,5 g/L
same,"Albumin Change from Baseline, Mean",Week 12,-0.9 g/L
same,"Albumin Change from Baseline, Median",Week 12,-1 g/L
same,"Albumin Change from Baseline, Min",Week 12,-7 g/L
same,"Albumin Observed Value, Max",Week 12,47 g/L
same,"Albumin Observed Value, Median",Week 12,41 g/L
same,"Albumin Observed Value, Min",Week 12,35 g/L
same,"Alkaline Phosphatase Change from Baseline, Max",Week 12,25 U/L
same,"Alkaline Phosphatase Change from Baseline, Min",Week 12,−127 U/L
same,"Alkaline Phosphatase Observed Value, Max",Week 12,304 U/L
same,"Alkaline Phosphatase Observed Value, Median",Week 12,98 U/L
same,"Alkaline Phosphatase Observed Value, Min",Week 12,52 U/L
same,"Bilirubin Change from Baseline, Max",Week 12,5.2 µmol/L
same,"Bilirubin Change from Baseline, Median",Week 12,-0.05 µmol/L
same,"Bilirubin Change from Baseline, Min",Week 12,-13.2 µmol/L
same,"Bilirubin Observed Value, Max",Week 12,57.8 µmol/L
same,"Bilirubin Observed Value, Min",Week 12,3.2 µmol/L
same,"Gamma Glutamyl Transferase Change from Baseline, Max",Week 12,56 U/L
same,"Gamma Glutamyl Transferase Change from Baseline, Mean",Week 12,−8.1 U/L
same,"Gamma Glutamyl Transferase Change from Baseline, Median",Week 12,−4 U/L
same,"Gamma Glutamyl Transferase Change from Baseline, Min",Week 12,−162 U/L
same,"Gamma Glutamyl Transferase Observed Value, Max",Week 12,240 U/L
same,"Gamma Glutamyl Transferase Observed Value, Median",Week 12,51 U/L
same,"Gamma Glutamyl Transferase Observed Value, Min",Week 12,8 U/L
same,ALT: subjects Within 10% of Baseline,"Week 12, m = 34",10 (29.4%) n (%)
same,ALT: subjects with >10% decrease from Baseline,"Week 12, m = 34",17 (50.0%) n (%)
same,ALT: subjects with >10% increase from Baseline,"Week 12, m = 34",7 (20.6%) n (%)
same,AST: subjects Within 10% of Baseline,"Week 12, m = 34",6 (17.6%) n (%)
same,AST: subjects with >10% decrease from Baseline,"Week 12, m = 34",21 (61.8%) n (%)
same,AST: subjects with >10% increase from Baseline,"Week 12, m = 34",7 (20.6%) n (%)
same,Albumin: subjects Within 10% of Baseline,"Week 12, m = 34",31 (91.2%) n (%)
same,Albumin: subjects with >10% decrease from Baseline,"Week 12, m = 34",2 (5.9%) n (%)
same,Albumin: subjects with >10% increase from Baseline,"Week 12, m = 34",1 (2.9%) n (%)
same,Alkaline Phosphatase: subjects Within 10% of Baseline,"Week 12, m = 34",6 (17.6%) n (%)
same,Alkaline Phosphatase: subjects with >10% decrease from Baseline,"Week 12, m = 34",23 (67.6%) n (%)
same,Alkaline Phosphatase: subjects with >10% increase from Baseline,"Week 12, m = 34",5 (14.7%) n (%)
same,Bilirubin: subjects Within 10% of Baseline,"Week 12, m = 34",10 (29.4%) n (%)
same,Bilirubin: subjects with >10% decrease from Baseline,"Week 12, m = 34",15 (44.1%) n (%)
same,Bilirubin: subjects with >10% increase from Baseline,"Week 12, m = 34",9 (26.5%) n (%)
same,"ALT Change from Baseline, Max",Week 16,45 U/L
same,"ALT Change from Baseline, Mean",Week 16,−8.0 U/L
same,"ALT Change from Baseline, Median",Week 16,−3 U/L
same,"ALT Change from Baseline, Min",Week 16,−64 U/L
same,"ALT Observed Value, Max",Week 16,140 U/L
same,"ALT Observed Value, Min",Week 16,13 U/L
same,"AST Change from Baseline, Max",Week 16,20 U/L
same,"AST Change from Baseline, Mean",Week 16,−3.3 U/L
same,"AST Change from Baseline, Median",Week 16,−3 U/L
same,"AST Change from Baseline, Min",Week 16,−42 U/L
same,"AST Observed Value, Max",Week 16,65 U/L
same,"AST Observed Value, Median",Week 16,26 U/L
same,"AST Observed Value, Min",Week 16,9 U/L
same,"Albumin Change from Baseline, Max",Week 16,3 g/L
same,"Albumin Change from Baseline, Mean",Week 16,-0.7 g/L
same,"Albumin Change from Baseline, Median",Week 16,-0.5 g/L
same,"Albumin Change from Baseline, Min",Week 16,-5 g/L
same,"Albumin Observed Value, Max",Week 16,49 g/L
same,"Albumin Observed Value, Median",Week 16,42 g/L
same,"Albumin Observed Value, Min",Week 16,32 g/L
same,"Alkaline Phosphatase Change from Baseline, Max",Week 16,71 U/L
same,"Alkaline Phosphatase Change from Baseline, Min",Week 16,−104 U/L
same,"Alkaline Phosphatase Observed Value, Max",Week 16,311 U/L
same,"Alkaline Phosphatase Observed Value, Min",Week 16,46 U/L
same,"Bilirubin Change from Baseline, Max",Week 16,5.2 µmol/L
same,"Bilirubin Change from Baseline, Min",Week 16,-37.7 µmol/L
same,"Bilirubin Observed Value, Max",Week 16,27.4 µmol/L
same,"Bilirubin Observed Value, Mean",Week 16,9.40 µmol/L
same,"Bilirubin Observed Value, Median",Week 16,8.1 µmol/L
same,"Bilirubin Observed Value, Min",Week 16,3.4 µmol/L
same,"Gamma Glutamyl Transferase Change from Baseline, Max",Week 16,90 U/L
same,"Gamma Glutamyl Transferase Change from Baseline, Mean",Week 16,−7.0 U/L
same,"Gamma Glutamyl Transferase Change from Baseline, Median",Week 16,−5.5 U/L
same,"Gamma Glutamyl Transferase Change from Baseline, Min",Week 16,−161 U/L
same,"Gamma Glutamyl Transferase Observed Value, Max",Week 16,294 U/L
same,"Gamma Glutamyl Transferase Observed Value, Median",Week 16,54 U/L
same,"Gamma Glutamyl Transferase Observed Value, Min",Week 16,6 U/L
same,ALT: subjects Within 10% of Baseline,"Week 16, m = 38",10 (26.3%) n (%)
same,ALT: subjects with >10% decrease from Baseline,"Week 16, m = 38",20 (52.6%) n (%)
same,ALT: subjects with >10% increase from Baseline,"Week 16, m = 38",8 (21.1%) n (%)
same,AST: subjects Within 10% of Baseline,"Week 16, m = 38",12 (31.6%) n (%)
same,AST: subjects with >10% decrease from Baseline,"Week 16, m = 38",19 (50.0%) n (%)
same,AST: subjects with >10% increase from Baseline,"Week 16, m = 38",7 (18.4%) n (%)
same,Albumin: subjects Within 10% of Baseline,"Week 16, m = 38",36 (94.7%) n (%)
same,Albumin: subjects with >10% decrease from Baseline,"Week 16, m = 38",2 (5.3%) n (%)
same,Albumin: subjects with >10% increase from Baseline,"Week 16, m = 38",0 n (%)
